Measured values from patent US20120213707A1, “Riboflavin Based Aerosol and Use as Placebo in Trials” (MPEX PHARMACEUTICALS, INC., priority 2009, published 2012).
Where two headings read alike, the source gives them in different places.

Tests used:
[1] = Aerosol particle size distribution, rat nose-only exposure system (7-Stage Mercer Cascade Impactor); format: physicochemical
Text: The aerosol was produced by metering the flow of the test article or vehicle formulations to 3 clinical nebulizers (Sidestream) connected to high velocity airstreams (10 L/min to each nebuliser). The aerosol produced was discharged through a 40 mm diameter tube into a flow-past inhalation exposure system. The airflow rate through the exposure system was monitored and recorded manually during the aerosol generation. Airflow to the exposure system was controlled by the absolute volume of air supplying the aerosol generators using variable area flow meters.
Determinations of aerosol concentration, particle size distribution, oxygen concentration, relative humidity and temperature was performed on test atmosphere samples collected from a representative port of the exposure system, with a collection sample flow-rate of 1 L/min. The sample flow rates were precisely controlled using variable area flow meters that were calibrated using a primary airflow calibrator before use. The absolute volume of each aerosol concentration sample was measured using a wet type gas meter.
The distribution of particle size in the generated aerosols for Groups 2 to 4 was measured weekly during the treatment period by collecting samples into a 7-Stage Mercer Cascade Impactor and the sample substrates obtained were transferred to the analytical chemistry laboratory of ITR Laboratories Canada Inc. for the chemical determination of the particle size of the aerosolized Riboflavin 5′-phosphate using a validated analytical method (ITR Study No. 40241). The distribution of particle size in the generated aerosols for Group 1 was estimated once weekly by gravimetric determination. The mass median aerodynamic diameter (MMAD) and the Geometric Standard Deviation (GSD) were calculated based on the results obtained from the impactor using a log-probit transformation.

Beagle dogs = test: 28-day aerosolized liquid inhalation (oronasal) toxicity study in Beagle dogs; format: in vivo
Text: The objective of the study was to determine the toxicity and toxicokinetic profile of the test article, Riboflavin 5′-phosphate, following inhalation (oronasal) administration to dogs for 28 consecutive days.
Test article: riboflavin 5′-phosphate sodium salt hydrate; alternate identity: vitamin B2 phosphate; description: yellow crystals; potency: 74%. Vehicle article: saline (0.9% (w/v) NaCl for injection); description: clear colorless solution. Exposure method: inhalation by oronasal face mask exposure.
The test (0.5 mg/mL, 2.0 mg/mL, 5.0 mg/mL) and/or vehicle control formulations (0 mg/mL) for each group were prepared fresh daily on each day by dissolving the test article in saline. All prepared test article formulations were protected from light and kept at room temperature (RT).
Duration of treatment: 28 days. Test system: Dog (Canis familiaris); strain: Beagle.
The aerosol was produced by metering the flow of the test and control article formulations to 3 clinical nebulizers (Sidestream). The aerosol produced was discharged through a 40 mm diameter tube into a flow-past inhalation exposure system. The airflow rate through the exposure system was monitored and recorded manually during the aerosol generation. Airflow to the exposure system was controlled by the absolute volume of air supplying the aerosol generators using variable area flow meters. Control of the aerosol exhaust flow from the animal exposure system was achieved using an exhaust valve. The system provided a minimum of 6 L/min of aerosol to each animal exposure position and the inlet and outlet airflows were balanced to ensure that there was no dilution of the generated aerosol by air drawn from the environment. Any minor variations in flow were buffered by a balloon reservoir. An equal delivery of aerosol to each exposure position was achieved by employing a distribution network that was identical for each individual exposure position attached to the system.
Mortality checks were performed once daily during the acclimation and pre-treatment periods, and twice a day (am and pm) during the treatment period of the study.
Cage-side clinical signs (ill health, behavioral changes etc.) were recorded for all animals once daily during the acclimation period and twice daily (pre-exposure and post-exposure) during the treatment period except on detailed clinical examination days. A detailed clinical examination of each dog was performed (replacing a cage-side clinical sign observation in the morning) at least once pretreatment, one day prior to Day 1, weekly during the treatment period and before necropsy.
Body weights were recorded for all animals at least once prior to group assignment, and approximately one week prior to initiation of treatment. Body weights were recorded for all animals one day prior to Day 1 and weekly during the treatment period, as well as terminally.
Individual daily food intake was recorded for all animals during the last week of the pretreatment period and throughout the treatment period.
Funduscopic (indirect ophthalmoscopy) and biomicroscopic (slit lamp) examinations were performed for all animals, once during the pre-treatment period and during Week 4 of the treatment period.
Electrocardiograms (limb leads I, II and III, and augmented leads aVR, aVL and aVF) were obtained for all dogs once during the pre-treatment period and at least 90 minutes (between 90-120 minutes) postexposure on Days 1 and during Week 4 of the treatment period. In addition, indirect blood pressure was measured on the same occasions as ECG using a tail cuff. The tracings were assessed for gross changes indicative of cardiac electrical dysfunction and the potential presence of abnormalities involving heart rate (lead II), sinus and atrioventricular rhythm or conductivity were determined. Heart rate, PR interval, QRS duration, QT and QTc intervals values were tabulated for incorporation into the study report. […]

[2] = format: in vivo, rat (rattus norvegicus)
Description: The objective of the study was to determine the toxicity and toxicokinetic profile of the test article, riboflavin 5′-phosphate, following inhalation (nose-only) administration to rats for 28 consecutive days.
Treatment: Daily inhalation by nose-only exposure for 60 minutes. Duration of treatment: 28 Days.
Assessments of mortality, clinical signs, body weights, food consumption, ophthalmology, functional observation battery and clinical chemistry, hematology, coagulation and urinalysis were performed. Plasma prepared from blood samples were collected from designated animals on the first and last days of the study and analyzed for Riboflavin 5′-phosphate content and toxicokinetic evaluation. All toxicology (main study) animals were euthanized upon completion of the 28-day treatment period and selected tissues were retained, weighed and examined microscopically. Toxicokinetic animals were euthanized following completion of blood sampling and were not subjected to necropsy examination or tissue collection. The following tables summarize tests, methods, and abbreviations used in hematology tests (Table 3), coagulation tests (Table 4), clinical chemistry tests (Table 5), and urinalysis (Table 6).

[3] = Group 2 Low Dose, 0.5 mg/mL formulation
[4] = Group 3 Mid Dose, 2.0 mg/mL formulation
[5] = Group 4 High Dose, 5.0 mg/mL formulation
[6] = female, Sprague-Dawley, rat, in vivo, 0.96 mg/kg/day
[7] = female, Sprague-Dawley, rat, in vivo, 2.4 mg/kg/day
[8] = male, Sprague-Dawley, rat, in vivo, 2.4 mg/kg/day
[9] = male, Sprague-Dawley, rat, in vivo, inhaled or intranasal, 0.96 mg/kg/day

SMILES: Cc1cc2nc3c(=O)[nH]c(=O)nc-3n(C[C@H](O)[C@H](O)[C@H](O)COP(=O)(O)O)c2cc1C [riboflavin 5′-phosphate]
- % of particles <3.1 μm [1, 3]: 91.8%
- MMAD [1, 3]: 1.2 μm
- % of particles <3.1 μm [1, 4]: 91.9%
- MMAD [1, 4]: 1.2 μm
- % of particles <3.1 μm [1, 5]: 87.8%
- MMAD [1, 5]: 1.2 μm
- No Observed Effect Level (NOEL) (Beagle dogs; Beagle dogs, oronasal inhalation up to 60 minutes/day, 28 consecutive days, high-dose group): 1.341 mg/kg/day
- tolerability (Beagle dogs; beagle dogs, inhalation exposure 28 days): well tolerated
- blood pressure (Beagle dogs; dog, in vivo): no changes in blood pressure that were considered related to treatment
- clinical chemistry (Beagle dogs; dog, in vivo): no changes noted in clinical chemistry parameters that were considered to be treatment-related
- clinical signs (Beagle dogs; dog, in vivo): no clinical signs related to treatment
- coagulation times (Beagle dogs; dog, in vivo): unaffected by treatment
- electrocardiogram wave forms (Beagle dogs; dog, in vivo): unaffected by treatment
- food consumption (Beagle dogs; dog, in vivo): no changes noted in food consumption that were considered to be treatment-related
- hematology (Beagle dogs; dog, in vivo): no changes noted in hematology parameters that were considered to be treatment-related
- macroscopic findings (Beagle dogs; dog, in vivo): no macroscopic findings that were considered to be test article related
- microscopic findings (Beagle dogs; dog, in vivo): no evidence of test article-related histopathological finding
- ophthalmology (Beagle dogs; dog, in vivo): no ocular changes noted that were considered to be treatment-related
- organ weights (Beagle dogs; dog, in vivo): slight increase in spleen weight
- respiratory parameters (respiratory rate, tidal volume and minute volume) (Beagle dogs; dog, in vivo): no changes in respiratory parameters evaluated
- urinalysis (Beagle dogs; dog, in vivo): no changes in any of the urinalysis parameters evaluated that were considered affected by treatment
- adverse effects (Beagle dogs; dog, in vivo, 1.34 mg/kg/day): no adverse effects were observed
- mortality (Beagle dogs; dogs, 28 days inhalation): no premature deaths
- Cmax ratio (M/F) ([2]; both, Sprague-Dawley, rat, in vivo, 0.96 mg/kg/day): 1.59
- AUC ratio (M/F) ([2]; both, Sprague-Dawley, rat, in vivo, 2.4 mg/kg/day): 1.24
- AUC ratio (M/F) [2, 6]: 1.25
- Cmax ratio (M/F) [2, 6]: 1.50
- AUC ratio (M/F) [2, 7]: 0.672
- Cmax ratio (M/F) [2, 7]: 1.17
- riboflavin concentration in plasma ([2]; female, Sprague-Dawley, rat, in vivo, 24 h): 0.829 µg/mL
- Tmax of riboflavin ([2]; female, Sprague-Dawley, rat, in vivo, inhaled or intranasal, 0.96 mg/kg/day): 0.00 h
- Tmax of riboflavin ([2]; female, Sprague-Dawley, rat, in vivo, inhaled or intranasal, 2.4 mg/kg/day): 0.00 h
- AUC ratio (M/F) [2, 8]: 0.433
- Cmax ratio (M/F) [2, 8]: 0.801
- AUC(0-T) of riboflavin [2, 9]: 15.9 ng·h/mL
- Tmax of riboflavin [2, 9]: 0.00 h
- Tmax of riboflavin ([2]; male, Sprague-Dawley, rat, in vivo, inhaled or intranasal, 2.4 mg/kg/day): 0.00 h
- gender difference in riboflavin exposure ([2]; rat, in vivo): no gender difference in riboflavin exposure
- riboflavin 5′-phosphate concentrations in plasma of treated animals ([2]; rat, in vivo): detected in only very few treated animals
- riboflavin concentration values, males versus females ([2]; rats, Day 1): slightly higher in males than in females
